Laboratory results: patent US20100273833A1, “2-SULFINYL- AND 2-SULFONYL-SUBSTITUTED IMIDAZOLE DERIVATIVES AND THEIR USE AS CYTOKINE INHIBITORS” (priority 2005, published 2010)
≈ marks a conversion by molar mass, not a printed value. Structures can show the parent of a compound that is named as a salt.

Experiments:
[1] = In vitro metabolism, incubation with rat liver microsomes; type: in vitro ADME; settings: phosphate buffer pH 7.4, NADPH, 37° C., HPLC peak areas
Procedure: The test substances were incubated in standard experiments with rat liver microsomes (phosphate buffer with pH 7.4, NADPH, 37° C.). The biotransformations were stopped after 0, 15, 30 and 60 min by adding acetonitrile and were centrifuged, and the protein-free supernatant was analyzed by HPLC. Resulting metabolites were approximately quantified via the peak areas. The result of the biotransformation of Example 12 and of the corresponding sulfanyl compound, which is representative in terms of the sulfinyl/sulfanyl substitution comparison, is described by way of example. The sulfanyl compound was rapidly converted into a number of metabolites and, after 30 min, less than 1% of the pharmacologically active starting substance remained. Under identical experimental conditions, about 70% of the initial amount of Example 12 were still present after 30 min, and more than 50% were still present after 60 min.

Solubility in water = type: physicochemical

| Structure (SMILES) | solubility in water (Solubility in water) | further results |
| --- | --- | --- |
| COCCn1c([S+](C)[O-])nc(-c2ccc(F)cc2)c1-c1ccnc(NC(C)C)c1 (stereo not drawn) [Example 12, {4-[5-(4-Fluorophenyl)-2-methanesulfinyl-3-(2-methoxyethyl)-3H-imidazol-4-yl]pyridin-2-yl}isopropylamine] |  | initial amount of starting substance still present after 30 min ([1]; 30 min): about 70%; initial amount still present after 60 min ([1]; 60 min): more than 50% |
| CC(=O)Nc1cc(-c2c(-c3ccc(F)cc3)nc([S+](C)[O-])n2C)ccn1 (stereo not drawn) [Example 3 sulfate, N-{4-[5-(4-Fluorophenyl)-2-methanesulfinyl-3-methyl-3H-imidazol-4-yl]pyridin-2-yl}acetamide] | 310 µg/mL |  |
| CC(=O)Nc1cc(-c2c(-c3ccc(F)cc3)nc([S+](C)[O-])n2C)ccn1 (stereo not drawn) [Example 3 hydrobromide, N-{4-[5-(4-Fluorophenyl)-2-methanesulfinyl-3-methyl-3H-imidazol-4-yl]pyridin-2-yl}acetamide] | 1050 µg/mL |  |
| CC(=O)Nc1cc(-c2c(-c3ccc(F)cc3)nc([S+](C)[O-])n2C)ccn1 (stereo not drawn) [Example 3 hydrogensulfate, N-{4-[5-(4-Fluorophenyl)-2-methanesulfinyl-3-methyl-3H-imidazol-4-yl]pyridin-2-yl}acetamide] | 390 µg/mL (≈ 1050 µM) |  |
| Fc1ccc(-c2nc3n(c2-c2ccnc(Nc4ccccc4)c2)CCS3)cc1 [Example 34, {4-[6-(4-Fluorophenyl)-2,3-dihydro-imidazo[2,1-b]thiazol-5-yl]-pyridin-2-yl}-phenyl-amine] |  | melting point: 298.7 °C |

The next lines start with results.

| solubility in water (Solubility in water) | Structure (SMILES) | further results |
| --- | --- | --- |
| 1120 µg/mL | CC(=O)Nc1cc(-c2c(-c3ccc(F)cc3)nc([S+](C)[O-])n2C)ccn1 (stereo not drawn) [Example 3 hydrochloride, N-{4-[5-(4-Fluorophenyl)-2-methanesulfinyl-3-methyl-3H-imidazol-4-yl]pyridin-2-yl}acetamide] |  |
| 70 µg/mL (≈ 188 µM) | CC(=O)Nc1cc(-c2c(-c3ccc(F)cc3)nc([S+](C)[O-])n2C)ccn1 (stereo not drawn) [Example 3, N-{4-[5-(4-Fluorophenyl)-2-methanesulfinyl-3-methyl-3H-imidazol-4-yl]pyridin-2-yl}acetamide] |  |
| 890 µg/mL | CC(=O)Nc1cc(-c2c(-c3ccc(F)cc3)nc([S+](C)[O-])n2C)ccn1 (stereo not drawn) [Example 3 methane sulfonate, N-{4-[5-(4-Fluorophenyl)-2-methanesulfinyl-3-methyl-3H-imidazol-4-yl]pyridin-2-yl}acetamide] |  |
